Measured values reported in patent US9468680B2, “Differential effects of drugs on transport in a multi-layer 3D spheroid model” (Brown University, priority 2011, dated 2016).
Structures can show the parent of a compound that is named as a salt.

Tests used:
[1] = target: T1, gap junctions (Homo sapiens, UniProt P17302); assay: transport of calcein from outer shell to core of KGN spheroids (compartmentalization analysis); assay type: cell-based
T1 construct: endogenous in cells; host or cells: KGN human granulosa cell line, self-assembled 3D spheroids
Description: (§1) KGN cells, a human granulosa cell line, were grown in DMEM^29. OVCAR-3 and SK-OV-3 cells were grown in Roswell Park Memorial Institute medium (RPMI; Invitrogen). Both media were supplemented with 10% fetal bovine serum (FBS) (Thermo Fisher Scientific, Waltham, Mass.) and 1% penicillin/streptomycin and grown at 37° C. and 10% CO2. Cells were trypsinized using 0.05% trypsin and resuspended to the desired cell concentration. Spheroids that were pre-stained were formed from cells incubated with 5 μM CellTracker™ Red CMPTX, CellTracker™ Green CMFDA, or CellTracker™ Blue CMAC (Invitrogen) in serum-free DMEM for 1 hour prior to trypsinization. 75 μl of the cell suspension was pipetted into the seeding chamber of each gel. Cells were allowed to settle for 20 minutes and 4 mL of medium was added. Cells self-assembled for 24 hours to form spheroids before experimentation.
(§2) Quantitative image analysis was performed using a custom MATLAB (Mathworks, Natick, Mass.) program. Briefly, fifty evenly spaced radii were drawn across each spheroid and fluorescence at each pixel was averaged. […] Total spheroid fluorescence was determined by the integration of the fluorescent profiles (Equation 2). To compare data across experiments, we normalized the spheroids to the fluorescence per depth of single cells at the final time point.
(§3) To measure uptake of calcein-AM and transport of calcein, medium was removed from the hydrogels containing self-assembled KGN spheroids (24 hours), and replaced with serum-free DMEM containing 1 μM calcein-AM (Invitrogen). […] Images were taken once per hour for 11 hours, at 37° C. and 10% CO2.
(§4) Hydrogels were equilibrated with a drug-containing medium overnight at 37° C. and 10% CO2, and spheroids were self-assembled for 24 hours in their respective drug concentration. […] A working solution of carbenoxolone (Sigma) was prepared by diluting appropriate volumes of a 10 mM stock solution into serum-free medium. Spheroids were assembled for 24 hours and then pretreated with carbenoxolone for 5 hours prior to adding calcein-AM for the uptake assay. Medium containing drug and calcein-AM were used for the uptake assay.
To deconvolve this fluorescent signal into an average 3D radial profile, the spheroid was estimated as a series of concentric spheres (multi-layers). Each layer (shell) was 14 μm in width and contained a homogenous concentration of fluorescent calcein (FIGS. 3C and D). The total fluorescence f(i) at X, layer is sum of the fluorescence contribution from all shells at Xi. Mathematically, the total fluorescence can be written as
[formula] Here, fnorm(j) is the fluorescence/height in the i^th shell and h(i, j) is the height at point (Xi, Yj). Note h(i, i)=0 lies at the centerline of the spheroid. […] Equation (4) results in the following iterative formula: […]
The inner core was taken as about≧14 μm from the center in the smallest dimension to ensure the core contained whole cells.

[2] = target: T2, Pgp (Homo sapiens, UniProt P08183); assay: cell-based
Description: as §1, §2, §3, §4

[3] = tested on: KGN spheroids; assay: loss of calcein from calcein-loaded KGN spheroids; assay type: cell-based, human; conditions: after 135 minutes calcein-AM loading
Description: To measure uptake of calcein-AM and transport of calcein, medium was removed from the hydrogels containing self-assembled KGN spheroids (24 hours), and replaced with serum-free DMEM containing 1 μM calcein-AM (Invitrogen). Fluorescent imaging of calcein began immediately and images were taken at regular intervals over 135 minutes at 37° C. and 10% CO2. To measure loss or loss of calcein, hydrogels containing KGN spheroids that had been incubated with calcein-AM for 135 minutes, thus loading the spheroids with calcein, were rinsed with DMEM and incubated in DMEM without calcein-AM. Images were taken once per hour for 11 hours, at 37° C. and 10% CO2.

[4] = target: T2, Pgp; conditions: 2D, calcein-AM assay, concentrations ranging from 1-100 μM; cited from earlier work
[5] = 1 μM calcein-AM, 75 minutes, n=15
[6] = 5 μM drug, 1 μM calcein-AM, 110 minutes
[7] = 5 μM drug, normalized data, 110 minutes

T2 sequence (P08183 whole entry): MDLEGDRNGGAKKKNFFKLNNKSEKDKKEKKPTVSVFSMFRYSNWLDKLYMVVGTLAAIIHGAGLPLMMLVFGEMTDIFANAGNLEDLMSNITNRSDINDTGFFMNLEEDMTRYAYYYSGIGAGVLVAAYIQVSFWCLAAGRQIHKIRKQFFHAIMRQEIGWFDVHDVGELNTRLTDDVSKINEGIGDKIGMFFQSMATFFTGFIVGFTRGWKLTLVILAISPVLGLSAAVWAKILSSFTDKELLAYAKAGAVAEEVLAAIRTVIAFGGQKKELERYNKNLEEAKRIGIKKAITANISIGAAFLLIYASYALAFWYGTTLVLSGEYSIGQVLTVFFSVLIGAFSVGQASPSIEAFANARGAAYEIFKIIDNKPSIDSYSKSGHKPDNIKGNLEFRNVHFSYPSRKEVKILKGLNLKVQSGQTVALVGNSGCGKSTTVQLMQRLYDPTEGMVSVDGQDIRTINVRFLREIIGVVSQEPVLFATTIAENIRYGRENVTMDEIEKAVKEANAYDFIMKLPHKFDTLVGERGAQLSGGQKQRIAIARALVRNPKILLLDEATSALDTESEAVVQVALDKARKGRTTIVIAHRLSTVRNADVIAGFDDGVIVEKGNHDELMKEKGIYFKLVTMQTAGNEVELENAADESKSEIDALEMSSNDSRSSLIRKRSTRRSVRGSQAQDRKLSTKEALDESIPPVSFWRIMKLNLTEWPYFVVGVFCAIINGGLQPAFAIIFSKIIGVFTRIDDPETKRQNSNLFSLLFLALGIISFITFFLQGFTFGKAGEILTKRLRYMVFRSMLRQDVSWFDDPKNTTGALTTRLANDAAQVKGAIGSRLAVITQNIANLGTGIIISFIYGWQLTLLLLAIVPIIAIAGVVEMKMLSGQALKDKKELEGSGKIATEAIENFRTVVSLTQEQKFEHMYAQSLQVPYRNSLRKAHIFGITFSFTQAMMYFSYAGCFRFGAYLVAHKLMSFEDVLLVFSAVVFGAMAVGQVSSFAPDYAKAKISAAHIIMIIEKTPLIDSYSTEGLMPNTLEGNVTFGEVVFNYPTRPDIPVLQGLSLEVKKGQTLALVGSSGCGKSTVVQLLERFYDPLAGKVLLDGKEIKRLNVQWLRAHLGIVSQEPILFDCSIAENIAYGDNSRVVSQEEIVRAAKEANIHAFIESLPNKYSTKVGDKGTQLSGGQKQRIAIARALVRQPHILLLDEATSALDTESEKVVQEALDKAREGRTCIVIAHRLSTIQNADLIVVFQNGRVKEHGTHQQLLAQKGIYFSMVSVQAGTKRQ
T1 sequence (P17302 2-382 limits assumed): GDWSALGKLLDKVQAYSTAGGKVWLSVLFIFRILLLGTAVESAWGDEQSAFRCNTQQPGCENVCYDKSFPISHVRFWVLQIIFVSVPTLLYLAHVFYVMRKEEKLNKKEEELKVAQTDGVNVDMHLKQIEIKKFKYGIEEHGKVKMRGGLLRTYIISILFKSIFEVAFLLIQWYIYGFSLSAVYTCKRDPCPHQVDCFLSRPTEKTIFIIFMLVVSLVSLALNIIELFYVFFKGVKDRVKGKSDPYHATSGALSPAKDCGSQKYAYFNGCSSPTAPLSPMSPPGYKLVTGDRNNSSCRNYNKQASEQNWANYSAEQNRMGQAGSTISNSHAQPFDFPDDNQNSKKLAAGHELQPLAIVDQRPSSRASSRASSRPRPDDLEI

| Compound | percentage of calcein in the core compared to controls [1, 5] | percentage of calcein in the outer shell compared to controls [1, 5] | IC50 ([1]; 1 μM calcein-AM, 75 minutes, read-out: half-maximal response, inhibition of gap junctions (fraction of calcein compartmentalized to outer shell)) [µM] | calcein in the core, fold less than controls ([1]; CBX 100 μM, 1 μM calcein-AM, 135 minutes) [fold] | percentage of calcein in the core ([1]; CBX 100 μM, 135 minutes, n=18, untreated 15±3%) [%] | percentage of calcein in the outer shell ([1]; CBX 100 μM, 135 minutes, n=18, untreated 27±3%) [%] | IC50 [2] [µM] | calcein in the outer shell, fold higher than controls ([2]; human, 135 min, 100 μM) [fold] | effect on loss of total spheroid calcein [3] | initial rate of calcein loss from the outer shell ([3]; drug-free medium, control 17±3% per hour, p<0.05) [% per hour] | calcein concentration in the core of the spheroid compared to untreated [1, 6] | percentage of calcein in the core compared to control [1, 7] | percentage of calcein in the outer most shell compared to control [1, 7] | percent maximum inhibition [4] [%] | calcein in the outer shell compared to untreated controls [2, 6] | total concentration of calcein in the spheroids compared to untreated controls [2, 6] |
| --- | --- | --- | --- | --- | --- | --- | --- | --- | --- | --- | --- | --- | --- | --- | --- | --- |
| CC1(C)[C@@H](OC(=O)CCC(=O)O)CC[C@]2(C)[C@H]3C(=O)C=C4[C@@H]5C[C@@](C)(C(=O)O)CC[C@]5(C)CC[C@@]4(C)[C@]3(C)CC[C@@H]12 [carbenoxolone] | reduced | increased | 9.4 | 8 | 0.5±2 | 52±4 | 81 | 3 | no effect | 13±1 | – | – | – | – | – | – |
| CN(C)C(=O)C(CCN1CCC(O)(c2ccc(Cl)cc2)CC1)(c1ccccc1)c1ccccc1 [loperamide, loperamide hydrochloride] | – | – | – | – | – | – | – | – | – | – | did not increase | decreased | increased | 76.3 | significantly increased | significantly increased |
